In patent US20110288086A1, “POLYCYCLIC QUINAZOLINES, PREPARATION THEREOF, AND USE THEREOF” (priority 2010, published 2011):
In brackets after ≈: the same amount, converted by molar mass. Structures can show the parent of a compound that is named as a salt.

How the values were obtained:
[1] = test system: Hut78 T-Lymphocytic Leukemia cells; test: Tumor cell IC50, CCK-8 kit, Hut78; format: cell-based; details: Homo sapiens, Hut-78 cells
Source text: (§1) The inhibitory activities of the compounds on tumor cells (IC50) in vitro
(§2) The IC50 (IC50, unit: μg/ml) values of the compounds on Hut78 T-Lymphocytic Leukemia cells, Jurkat E6-1 human T-cell lymphoma, PANC-1 human pancreatic cancer cells, A549 human lung cancer cells, K562 human chronicity marrow leukemic cells, Hep3B2. 1-7 human hepatoma carcinoma cells, MDA-MB-435s human breast carcinoma cells, Colo320 human rectal cancer cells, PC-3 human carcinoma of prostate, and HepG2 human hepatoma carcinoma cells were determined using a CCK-8 kit. Erlotinib hydrochloride was used as the positive control drug.

[2] = test system: Jurkat E6-1 human T-cell lymphoma; test: Tumor cell IC50, CCK-8 kit, Jurkat E6-1; format: cell-based; details: E6-1 cells
Source text: as §1, §2

[3] = test system: K562 human chronicity marrow leukemic cells; test: Tumor cell inhibition ratio, CCK-8 kit, K562; details: K562, read-out: Antiproliferative effect (inhibition ratio) K562
Source text: (§3) The inhibitory activities of the compounds on tumor cells in vitro

[4] = test system: PC-3 human carcinoma of prostate; test: Tumor cell IC50, CCK-8 kit, PC-3; format: cell-based; details: PC-3 cells
Source text: as §1, §2

[5] = test system: PANC-1 human pancreatic cancer cells; test: Tumor cell inhibition ratio, CCK-8 kit, PANC-1; details: PANC-1, read-out: Antiproliferative effect (inhibition ratio) PANC-1
Source text: as §3

[6] = test system: Hut78 T-Lymphocytic Leukemia cells; test: Tumor cell inhibition ratio, CCK-8 kit, Hut78; details: Homo sapiens, HuT78, read-out: Antiproliferative effect (inhibition ratio) Hut-78
Source text: as §3

EGFR tyrosine kinase = EGFR tyrosine kinase (Homo sapiens, UniProt P00533); test: EGFR tyrosine kinase inhibition in vitro (Invitrogen EGFR inhibitor screening kit PV3193)
Source text: The inhibitory activities of EGFR tyrosine kinase in vitro
Erlotinib hydrochloride was used as a positive control drug.

[7] = test system: Colo320 human rectal cancer cells; test: Tumor cell inhibition ratio, CCK-8 kit, Colo320; details: COLO 320, read-out: Antiproliferative effect (inhibition ratio) Colo320
Source text: as §3

aurora kinase B = molecular target: T1, aurora kinase B (Homo sapiens, UniProt Q96GD4); test: Aurora kinase B inhibition in vitro (Invitrogen aurora kinase screening kit PV3174); format: biochemical
T1 construct: purchased Invitrogen PV3174

[8] = test system: A549 human lung cancer cells; test: Tumor cell inhibition ratio, CCK-8 kit, A549; details: A549, read-out: Antiproliferative effect (inhibition ratio) A549
Source text: as §3

[9] = test system: Hep3B2.1-7 human hepatoma carcinoma cells; test: Tumor cell inhibition ratio, CCK-8 kit, Hep3B; details: read-out: Antiproliferative effect (inhibition ratio) Hep3B
Source text: as §3

[10] = test system: Jurkat E6-1 human T-cell lymphoma; test: Tumor cell inhibition ratio, CCK-8 kit, Jurkat E6-1; details: Jurkat E6.1, read-out: Antiproliferative effect (inhibition ratio) E6-1
Source text: as §3

[11] = test system: PC-3 human carcinoma of prostate; test: Tumor cell inhibition ratio, CCK-8 kit, PC-3; details: read-out: Antiproliferative effect (inhibition ratio) PC-3
Source text: as §3

[12] = test system: MDA-MB-435s human breast carcinoma cells; test: Tumor cell IC50, CCK-8 kit, MDA-MB-435s; format: cell-based; details: 435s cells
Source text: as §1, §2

[13] = test system: Hep3B2. 1-7 human hepatoma carcinoma cells; test: Tumor cell IC50, CCK-8 kit, Hep3B; format: cell-based
Source text: as §1, §2

[14] = test system: K562 human chronicity marrow leukemic cells; test: Tumor cell IC50, CCK-8 kit, K562; format: cell-based
Source text: as §1, §2

[15] = test system: Colo320 human rectal cancer cells; test: Tumor cell IC50, CCK-8 kit, Colo320; format: cell-based; details: COLO 320
Source text: as §1, §2

[16] = test system: A549 human lung cancer cells; test: Tumor cell IC50, CCK-8 kit, A549; format: cell-based
Source text: as §1, §2

[17] = test system: PANC-1 human pancreatic cancer cells; test: Tumor cell IC50, CCK-8 kit, PANC-1; format: cell-based; details: PANC-1 cells
Source text: as §1, §2

[18] = test system: MDA-MB-435s human breast carcinoma cells; test: Tumor cell inhibition ratio, CCK-8 kit, MDA-MB-435s; details: read-out: Antiproliferative effect (inhibition ratio) 435s
Source text: as §3

T1 sequence (Q96GD4 whole entry): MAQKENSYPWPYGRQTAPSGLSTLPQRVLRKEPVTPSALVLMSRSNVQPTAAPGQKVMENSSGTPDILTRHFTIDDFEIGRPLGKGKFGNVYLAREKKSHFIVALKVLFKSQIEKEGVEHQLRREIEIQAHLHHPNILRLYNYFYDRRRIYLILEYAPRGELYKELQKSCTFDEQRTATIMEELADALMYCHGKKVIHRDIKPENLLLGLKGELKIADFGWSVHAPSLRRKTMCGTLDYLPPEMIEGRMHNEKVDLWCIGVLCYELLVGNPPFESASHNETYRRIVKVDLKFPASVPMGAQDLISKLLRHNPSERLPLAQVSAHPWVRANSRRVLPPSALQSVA
EGFR tyrosine kinase, sequence (P00533 25-1210): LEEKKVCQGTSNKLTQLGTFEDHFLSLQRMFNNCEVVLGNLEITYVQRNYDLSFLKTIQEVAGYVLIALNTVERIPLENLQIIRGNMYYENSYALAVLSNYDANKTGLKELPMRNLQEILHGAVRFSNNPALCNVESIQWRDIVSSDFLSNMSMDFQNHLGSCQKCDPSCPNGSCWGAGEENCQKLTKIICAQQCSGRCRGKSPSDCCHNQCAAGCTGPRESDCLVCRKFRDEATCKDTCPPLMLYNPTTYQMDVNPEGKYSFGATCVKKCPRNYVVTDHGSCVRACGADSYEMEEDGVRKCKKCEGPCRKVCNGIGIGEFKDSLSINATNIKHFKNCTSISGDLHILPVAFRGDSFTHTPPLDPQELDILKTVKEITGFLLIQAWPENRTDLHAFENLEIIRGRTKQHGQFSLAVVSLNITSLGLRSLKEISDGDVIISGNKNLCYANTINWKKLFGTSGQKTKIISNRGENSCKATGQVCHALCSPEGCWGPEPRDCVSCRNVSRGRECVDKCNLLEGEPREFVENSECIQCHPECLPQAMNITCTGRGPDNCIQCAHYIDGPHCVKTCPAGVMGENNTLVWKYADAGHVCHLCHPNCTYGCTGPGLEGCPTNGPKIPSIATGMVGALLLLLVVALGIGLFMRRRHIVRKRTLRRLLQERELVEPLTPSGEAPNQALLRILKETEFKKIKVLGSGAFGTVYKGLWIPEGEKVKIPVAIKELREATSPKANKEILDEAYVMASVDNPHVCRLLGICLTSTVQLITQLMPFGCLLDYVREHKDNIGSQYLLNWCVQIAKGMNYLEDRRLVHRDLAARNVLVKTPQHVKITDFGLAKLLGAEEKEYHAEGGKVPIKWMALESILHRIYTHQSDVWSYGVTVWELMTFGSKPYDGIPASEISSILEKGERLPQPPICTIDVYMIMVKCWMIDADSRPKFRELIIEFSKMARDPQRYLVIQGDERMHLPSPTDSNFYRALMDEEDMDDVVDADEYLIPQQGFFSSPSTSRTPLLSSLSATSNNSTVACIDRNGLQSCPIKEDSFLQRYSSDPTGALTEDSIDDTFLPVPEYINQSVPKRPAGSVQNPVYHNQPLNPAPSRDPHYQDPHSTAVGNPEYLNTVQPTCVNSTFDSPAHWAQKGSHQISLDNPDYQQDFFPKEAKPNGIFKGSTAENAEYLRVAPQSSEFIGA

Row | SMILES | IC50 [1] [µg/mL] | IC50 [2] [µg/mL] | inhibition at 10 µM [3] [%] | inhibition at 100 µM [3] [%] | IC50 [4] [µg/mL] | inhibition at 10 µM [5] [%] | inhibition at 100 µM [5] [%] | inhibition at 10 µM [6] [%] | inhibition at 100 µM [6] [%] | The inhibition ratio of the compound on EGFR(%) (EGFR tyrosine kinase; 40 μM) | The inhibition ratio of the compound on EGFR(%) (EGFR tyrosine kinase; 200 μM) | inhibition at 10 µM [7] [%] | The inhibition ratio of the compound on Aurora B(%) (aurora kinase B; 40 μM) | The inhibition ratio of the compound on Aurora B(%) (aurora kinase B; 200 μM) | inhibition at 10 µM [8] [%] | inhibition at 100 µM [8] [%] | inhibition at 10 µM [9] [%] | inhibition at 100 µM [9] [%] | inhibition at 10 µM [10] [%] | inhibition at 100 µM [10] [%] | also measured
1 | Br.COCCOc1cc2c(cc1OCCOC)C1=Nc3cccc(N)c3CN1C=N2 [Compound V-6, 9-amino-2,3-bis(2-methoxyethoxy)-8H-quinazolino[4,3-b]quinazoline hydrobromide trihydrate] | 58.8 | 30.5 | 64.1 | 82.8 | 33 | 64.2 | 98.6 | 69 | 91.9 | 55.2 | 93.8 | 73.5 | 48.5 | 93.8 | 63 | 97.3 | 51.3 | 84.7 | 61.1 | 95.3 | inhibition at 100 µM [7]: 99.2%; inhibition at 10 µM [11]: 53.4%; inhibition at 100 µM [11]: 84.4%; IC50 [12]: 33.5 µg/mL; IC50 [13]: 15.6 µg/mL; IC50 [14]: 46.4 µg/mL; IC50 [15]: 29.8 µg/mL; IC50 [16]: 3.68 µg/mL; IC50 [17]: 16.8 µg/mL; inhibition at 10 µM [18]: 50.4%; inhibition at 100 µM [18]: 87%
2 | COCCOc1cc2c(cc1OCCOC)C1=Nc3cccc(O)c3CN1C=N2 [Compound V-8, 9-hydroxy-2,3-bis(2-methoxyethoxy)-8H-quinazolino[4,3-b]quinazoline] | 53.1 (≈ 134 µM) | 8.11 (≈ 20.4 µM) | 52.4 | 92.2 | 9.9 (≈ 24.9 µM) | 41.5 | 89.8 | 35.6 | 75.9 | 52.3 | 95.6 | 64.5 | 32.3 | 96.4 | 52.8 | 80 | 52.4 | 87.3 | 44 | 85.4 | inhibition at 100 µM [7]: 94.8%; inhibition at 10 µM [11]: 45.2%; inhibition at 100 µM [11]: 94%; IC50 [12]: 27.6 µg/mL (≈ 69.5 µM); IC50 [13]: 33.1 µg/mL (≈ 83.4 µM); IC50 [14]: 63.1 µg/mL (≈ 159 µM); IC50 [15]: 29.8 µg/mL (≈ 74.9 µM); IC50 [16]: 30 µg/mL (≈ 75.5 µM); IC50 [17]: 21.2 µg/mL (≈ 53.3 µM); inhibition at 10 µM [18]: 55%; inhibition at 100 µM [18]: 93.7%
3 | COCCOc1cc2c(cc1OCCOC)C1=Nc3cccc(NC(C)=O)c3CN1C=N2 [Compound V-11, N-{2,3-bis(2-methoxyethoxy)-8H-quinazolino[4,3-b]quinazoline}acetamide] | 26.8 (≈ 61.1 µM) | 39.9 (≈ 90.9 µM) | 50.5 | 86 | 36.8 (≈ 83.9 µM) | 57.9 | 91.3 | 31 | 72.8 | 56.4 | 85.6 | 41.6 | 53.5 | 96.7 | 63.1 | 99.2 | 57.1 | 82.8 | 41.6 | 90.8 | inhibition at 100 µM [7]: 96.3%; inhibition at 10 µM [11]: 55.1%; inhibition at 100 µM [11]: 89.7%; IC50 [12]: 6.79 µg/mL (≈ 15.5 µM); IC50 [13]: 26.1 µg/mL (≈ 59.5 µM); IC50 [14]: 40.6 µg/mL (≈ 92.6 µM); IC50 [15]: 34.6 µg/mL (≈ 78.8 µM); IC50 [16]: 4.64 µg/mL (≈ 10.6 µM); IC50 [17]: 6.72 µg/mL (≈ 15.3 µM); inhibition at 10 µM [18]: 41%; inhibition at 100 µM [18]: 89.5%
4 | COCCOc1cc2c(cc1OCCOC)C1=Nc3ccc(F)c(Cl)c3CN1C=N2 [Compound V-13, 9-chloro-10-fluoro-2,3-bis(2-methoxyethoxy)-8H-quinazolino[4,3-b]quinazoline] | 0.62 (≈ 1.43 µM) | 3.89 (≈ 8.97 µM) | 66.2 | 98.5 | 9.78 (≈ 22.5 µM) | 45.9 | 87.2 | 66.2 | 101 | 45.7 | 88.9 | 59.7 | 55.2 | 95.8 | 43 | 91.1 | 64.7 | 102 | 52.6 | 98 | inhibition at 10 µM [11]: 61.4%; inhibition at 100 µM [11]: 87.7%; IC50 [12]: 31.4 µg/mL (≈ 72.4 µM); IC50 [13]: 0.32 µg/mL (≈ 0.738 µM); IC50 [14]: 11 µg/mL (≈ 25.3 µM); IC50 [15]: 9.88 µg/mL (≈ 22.8 µM); IC50 [16]: 10.7 µg/mL (≈ 24.7 µM); IC50 [17]: 14.9 µg/mL (≈ 34.3 µM); inhibition at 10 µM [18]: 26.8%; inhibition at 100 µM [18]: 67.9%
5 | C#Cc1ccc2c(c1)N=C1c3cc(OCCOC)c(OCCOC)cc3N=CN1C2 [Compound V-19, 11-ethynyl-2,3-bis(2-methoxyethoxy)-8H-quinazolino[4,3-b]quinazoline] | 47.4 (≈ 117 µM) | 12.5 (≈ 30.7 µM) | 45.4 | 81.1 | 15.3 (≈ 37.8 µM) | 49.7 | 85.9 | 33 | 63.8 | 53.4 | 95.7 | 37 | 52.4 | 95.7 | 48.6 | 90.7 | 53.5 | 85 | 55.2 | 91.1 | inhibition at 100 µM [7]: 89.6%; inhibition at 10 µM [11]: 62.2%; inhibition at 100 µM [11]: 92.7%; IC50 [12]: 36.5 µg/mL (≈ 90.1 µM); IC50 [13]: 9.32 µg/mL (≈ 23 µM); IC50 [14]: 31.1 µg/mL (≈ 76.7 µM); IC50 [15]: 10 µg/mL (≈ 24.7 µM); IC50 [16]: 50 µg/mL (≈ 123 µM); IC50 [17]: 27.3 µg/mL (≈ 67.4 µM); inhibition at 10 µM [18]: 55.8%; inhibition at 100 µM [18]: 91.6%
6 | C#Cc1cccc2c1CN1C=Nc3cc(OC)c(OC)cc3C1=N2 [Compound V-31, 9-ethynyl-2,3-dimethoxy-8H-quinazolino[4,3-b]quinazoline] |  |  | 37.5 | 85 |  | 46.5 | 96.4 | 41.1 | 72.2 | 30.6 | 76.5 | 30.8 | 10.6 | 66.5 | 28.8 | 32.8 | 31.9 | 62.2 | 21.8 | 84.2 | inhibition at 100 µM [7]: 92.8%; inhibition at 10 µM [11]: 29.4%; inhibition at 100 µM [11]: 81.7%; inhibition at 10 µM [18]: 50.6%; inhibition at 100 µM [18]: 85.1%
7 | C#Cc1cccc(Nc2ncnc3cc(OCCOC)c(OCCOC)cc23)c1 [Erlotinib hydrochloride, reference compound] | 43.2 | 35.6 |  |  | 54.2 |  |  |  |  |  |  |  |  |  |  |  |  |  |  |  | IC50 [12]: 13.1 µg/mL; IC50 [13]: 62.3 µg/mL; IC50 [14]: 39.9 µg/mL; IC50 [15]: 40.4 µg/mL; IC50 [16]: 19.3 µg/mL; IC50 [17]: 32.5 µg/mL
